This is an account of results in PubChem BioAssay (NCI).

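The compound was tested at five concentrations on cells cultured in 96-well plates, with a 48-hour exposure period. GI50 = concentration required for 50% inhibition of growth. At the TGI there is no net growth.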

Among the test systems are SNB-75 CNS; SK-MEL-28 melanoma; HCT-15 colon; A498 renal; HL-60(TB) leukemia; MOLT-4 leukemia; ACHN renal; MCF7 breast; SK-MEL-5 melanoma; MDA-N; 786-0 renal; COLO 205 colon; SF-295 CNS; MDA-MB-231 breast; UO-31 renal; PC-3 prostate.
Test in all cases: growth of human tumour cells (NCI), 48 h

With `CC(Oc1ccccc1Cl)C(=O)NN1C(=O)CC(=O)N(c2ccccc2)C1=S` (stereo unspecified), the TGI in the assay on SNB-75 CNS is more than 100 µM; with SK-MEL-28 melanoma it was more than 100 µM; with HCT-15 colon, more than 100 µM; in the assay with A498 renal it was more than 100 µM; in the assay with HL-60(TB) leukemia it was 59.7 µM; in the assay on MOLT-4 leukemia it was more than 100 µM. In addition, the TGI in the assay on ACHN renal, in the assay with MCF7 breast, with SK-MEL-5 melanoma, in the assay with MDA-N, in the assay with 786-0 renal and in the assay on COLO 205 colon was more than 100 µM in each case. For the same molecule, the TGI in the assay with SF-295 CNS, in the assay on MDA-MB-231 breast, in the assay on UO-31 renal and in the assay on PC-3 prostate was more than 100 µM in each case.
Regarding `CCCCCCCCCCCC(=O)OC[C@H](C[As](=O)(O)O)OC(=O)CCCCCCCCCCC`, the TGI with SNB-75 CNS is 24.7 µM; with SK-MEL-28 melanoma, 11.9 µM; in the assay with HCT-15 colon it was 23.9 µM; with A498 renal, 17.1 µM; in the assay on HL-60(TB) leukemia, more than 28.6 µM; with MOLT-4 leukemia, more than 81.4 µM. Further, the TGI was determined as 9.07 µM with ACHN renal; 21.9 µM in the assay on MCF7 breast; 4.54 µM with SK-MEL-5 melanoma; 14.8 µM in the assay with MDA-N; 26 µM with 786-0 renal; 38.8 µM with COLO 205 colon. In addition, the TGI worked out at 27 µM with SF-295 CNS, 16.3 µM in the assay with MDA-MB-231 breast, 29.5 µM in the assay with UO-31 renal and 10.5 µM with PC-3 prostate.
With `CN(C)c1ccc(/C=C/c2ccc(S(N)(=O)=O)cc2)cc1`, the TGI with SNB-75 CNS is 62.6 µM; in the assay on SK-MEL-28 melanoma, 28 µM; in the assay on HCT-15 colon, 74.1 µM; with A498 renal, 40.3 µM; with HL-60(TB) leukemia it was more than 100 µM; in the assay with MOLT-4 leukemia it was more than 100 µM. In addition, the TGI in the assay on ACHN renal was 33.6 µM; in the assay with MCF7 breast it was more than 100 µM; in the assay with SK-MEL-5 melanoma, 25.8 µM; with MDA-N, more than 100 µM; in the assay on 786-0 renal, 35.4 µM; in the assay on COLO 205 colon it was 99.2 µM. Also, the TGI was found to be 46.8 µM with SF-295 CNS, 34.3 µM with MDA-MB-231 breast, 34.5 µM in the assay on UO-31 renal and 34.8 µM in the assay with PC-3 prostate. The GI50 in the assay with HCT-15 colon was 17.1 µM; in the assay with HL-60(TB) leukemia, more than 100 µM; in the assay on MOLT-4 leukemia, more than 100 µM; in the assay on ACHN renal, 13.6 µM.
For `COc1cc2c(c(OC)c1OC)C(=O)[C@@H]1[C@H]2N1C(=O)NCCCl`, the TGI in the assay on SNB-75 CNS, in the assay on SK-MEL-28 melanoma, with HCT-15 colon, in the assay with A498 renal, with HL-60(TB) leukemia and in the assay on MOLT-4 leukemia was more than 100 µM each time. The TGI in the assay with ACHN renal is more than 100 µM; in the assay with MCF7 breast, more than 100 µM; in the assay on SK-MEL-5 melanoma, more than 100 µM; in the assay on MDA-N it was more than 100 µM; in the assay on 786-0 renal, more than 100 µM; with COLO 205 colon it was 78.3 µM. In addition, the TGI in the assay with SF-295 CNS, in the assay with MDA-MB-231 breast, in the assay on UO-31 renal and in the assay with PC-3 prostate was more than 100 µM in each case.
`c1cc(-c2ccc(-c3ccc(-c4ccc(-c5ccncc5)o4)cc3)o2)ccn1`: the TGI with SNB-75 CNS was 36.6 µM; in the assay with SK-MEL-28 melanoma, 44.6 µM; with HCT-15 colon, 28.3 µM; in the assay with A498 renal, more than 100 µM; in the assay with HL-60(TB) leukemia it was 43.5 µM; in the assay with MOLT-4 leukemia, 25.7 µM. Also, the TGI in the assay on ACHN renal was 64.6 µM; in the assay on MCF7 breast, 38.7 µM; in the assay with SK-MEL-5 melanoma it was 26 µM; in the assay with MDA-N, 31.1 µM; in the assay with 786-0 renal, 30.7 µM; in the assay with COLO 205 colon, 30.2 µM. For the same molecule, the TGI with SF-295 CNS was 30.9 µM; in the assay on MDA-MB-231 breast it was 63.8 µM; in the assay on UO-31 renal, 38 µM; in the assay on PC-3 prostate it was 36.4 µM.
`COC(=O)C1Cc2ccc(O)c(O)c2CN1` (stereo unspecified): the TGI in the assay with SNB-75 CNS was 34.4 µM; in the assay with SK-MEL-28 melanoma it was 31 µM; with HCT-15 colon, 87.1 µM; in the assay on A498 renal, more than 100 µM; in the assay with HL-60(TB) leukemia it was 72.6 µM; with MOLT-4 leukemia it was 58.7 µM. The TGI with ACHN renal is more than 100 µM; in the assay on MCF7 breast, 32 µM; in the assay with SK-MEL-5 melanoma, 28.5 µM; in the assay with MDA-N, 30.8 µM; in the assay with 786-0 renal it was 31.8 µM; in the assay with COLO 205 colon it was more than 100 µM. Besides, the TGI with SF-295 CNS was determined as 20.4 µM; in the assay on MDA-MB-231 breast it was 43.3 µM; in the assay on UO-31 renal, 51.8 µM; with PC-3 prostate it was 84.3 µM.
For the molecule `COc1cc(-c2nc3ccc(N4CCN(C)CC4)cc3[nH]2)c(OC)c2[nH]c(COC(C)=O)nc12`, the TGI with SNB-75 CNS is 82 µM; in the assay on SK-MEL-28 melanoma, more than 100 µM; in the assay on HCT-15 colon it was more than 100 µM; with A498 renal, more than 100 µM; with HL-60(TB) leukemia it was more than 100 µM; in the assay with MOLT-4 leukemia, more than 100 µM. Also, the TGI in the assay on ACHN renal, in the assay with MCF7 breast, with SK-MEL-5 melanoma, in the assay on MDA-N, in the assay with 786-0 renal and in the assay with COLO 205 colon was more than 100 µM each time. The TGI in the assay with SF-295 CNS, in the assay on MDA-MB-231 breast, in the assay with UO-31 renal and in the assay on PC-3 prostate was more than 100 µM each time.
